Values joined by “and” are separate entries in the source; they are usually repeats but may differ in a detail not shown here. Identical values can stand only once. Like-named read-outs stand apart in the source and are kept apart here.
Experiments:
neddylation of cullin 3 [1] = experiment: Western blot, cullin 3 neddylation in U2OS cells; format: cell-based, human; settings: 24 h, Fig. 1c
[2] = test system: neddylation of cullin 1, 2, 4A, 4B, and 5; experiment: Western blot, neddylation of other cullin members; format: cell-based, human
Procedure: Western blotting was performed as described previously. Treated cells were lysed by RIPA buffer supplemented with protease inhibitor. The expression level of indicated proteins was examined by immunoblotting analysis and GAPDH was used as the loading control. Antibodies were purchased commercially: cullin 1 (sc-17775, 1:500 dilution) and cullin 2 (sc-166506, 1:500 dilution) from Santa Cruz Biotech (Santa Cruz, CA); cullin 4A (PA5-14542, 1:1000 dilution), cullin 4B (PA5-50647, 1:1000 dilution), and DCN3 (DCUN1D3, PA5-44000, 1:1000 dilution) from Thermo Fisher Scientific (Wayne, MI); cullin 3 (2759, 1:1000), NRF2 (12721, 1:1000 dilution), HO-1 (70081, 1:1000 dilution), and Bim (2819, 1:1000 dilution) from Cell Signaling Technology (Boston, MA); DCN1 (GWB-E3D700, 1:1000 dilution) from GenWay Biotech (San Diego, CA); and cullin 5 (A302-173A, 1:500 dilution) from Bethyl Labs (Montgomery, TX). Results are representative of two independent experiments.

[3] = test system: NRF2 protein in mouse liver tissue; experiment: Pharmacodynamics: NRF2 protein in mouse liver tissue (western blot); format: in vivo; settings: single dose 25 mg/kg IP
Procedure: Fig. 7 DI-1859 effectively increases the level of NRF2 protein in the liver tissue and protects liver tissue damage induced by acetaminophen (APAP) in mice. a Western blotting analysis of the effect of DI-1548 or DI-1859 on the level of NRF2 protein in mouse liver tissue. Liver tissues harvested from C57BL/6 male mice treated with DI-1548 or DI-1859 at 25 mg/kg via intraperitoneal (IP) injection was lysed with RIAP buffer. The expression level of NRF2 protein was examined by western blotting. GAPDH was used a loading control. Representative images of two independent experiments are shown. b Analysis of the serum alanine aminotransferase (ALT) level in mice. The time (h) counted from APAP administration in G2 and G5-8, from DI-1859 or vehicle administration in G1, G3, and G4. Data are presented as mean ± s.d. with n = 9 (G1), 9 (G2), 8 (G3), 8 (G4), 9 G5), 9 (G6), 9 (G7), and 9 (G8). c Immunohistological analysis of mouse liver tissues. Images are representatives in each group. Images were taken with a 100× objective. Scale bar: 100 µm. d Analysis of the ROS level in mouse liver tissue. Data are presented as mean ± s.d. with n = 9 (G1), 8 (G2), 8 (G3), 8 (G4), 8 (G5), 6 (G6), 9 (G7), and 9 (G8). G1: Vehicle (qD for 3 days); G2: APAP (400 mg/kg, a single dose); G3: DI-1859 (25 mg/kg, qD for 3 days); G4: DI-1859 (50 mg/kg, qD for 3 days); G5: DI-1859 (25 mg/kg, qD for 3 days), a single dose of APAP at 400 mg/kg administered 3 h after the second dose of DI-1859 administration on day 2; G6: DI-1859 (50 mg/kg, qD for 3 days), a single dose of APAP at 400 mg/kg administered 3 h after the second dose of DI-1859 administration on day 2; G7: APAP (400 mg/kg, a single dose), followed with DI-859 at 25 mg/kg 3 h after APAP administration and two additional doses on day 2 and day 3; and G8: APAP (400 mg/kg, a single dose), followed with DI-859 at 50 mg/kg 3 h after APAP administration and two additional doses on day 2 and day 3. n = 8–9 mice per group. Source data are provided as a Source Data file.
Western blotting was performed as described previously. […]

DCN3 protein = DCN3 protein (Homo sapiens, UniProt Q8IWE4); experiment: Intact-protein mass spectrometric analysis, Method B (DCN3); format: binding; settings: 3 h incubation
Procedure: Method B: Recombinant DCN1 or DCN3 protein (100 nM in 25 mM Tris 7.5, 200 mM NaCl, 1 mM DTT buffer) was incubated with 1.2-fold excess of the DCN1 inhibitors at 37 °C for 10 min, 1 h, or 3 h. Following incubation, the protein was analyzed by LC–MS (Agilent Q-TOF 6545) under the following conditions: fragmentor voltage, 300 V; skimmer voltage, 75 V; nozzle voltage, 100 V; sheath gas temperature, 350 °C; and drying gas temperature, 325 °C. MassHunter Qualitative Analysis software (Agilent) was used to analyze the data. Intact protein masses were obtained using the maximum entropy deconvolution algorithm. The mass spectrometry data in Supplementary Figs. 14–17 were generated by Method B.

[4] = Pharmacokinetics: concentrations in mouse plasma and liver; format: in vivo; settings: for concentration at 1 h / concentration at 3 h / concentration at 6 h / concentration at 24 h: male, C57BL/6, mouse, ip
Procedure: Supplementary Table 2A. Concentrations of DI-1548 in mouse Plasma and liver after the C57BL/6 male mice were treated with a single dose of DI-1548 at 25 mg/kg via intraperitoneal (IP) injection. BLQ: below the limit of quantification.
Time point (h) Plasma (ng /mL) Liver (ng /g)
Supplementary Table 2B. Concentrations of DI-1859 in mouse Plasma and liver after the C57BL/6 male mice were treated with a single dose of DI-1859 at 25 mg/kg via intraperitoneal (IP) injection. BLQ:
Time point (h) Pl asma (ng /mL) Liver (ng /g) […]

neddylation of cullin 3 [5] = experiment: Western blot, cullin 3 neddylation in cells of different tissue types (U2OS, THLE2, MDA-MB-231, KYSE70, HCT116); format: cell-based, human
NRF2 protein = experiment: Western blot, NRF2 protein accumulation in cells; format: cell-based, human
[6] = C57BL/6 male mice, 25 mg/kg IP, 6 h
[7] = C57BL/6 male mice, 25 mg/kg IP, 24 h

DCN3 protein, sequence (Q8IWE4 86-304 limits assumed): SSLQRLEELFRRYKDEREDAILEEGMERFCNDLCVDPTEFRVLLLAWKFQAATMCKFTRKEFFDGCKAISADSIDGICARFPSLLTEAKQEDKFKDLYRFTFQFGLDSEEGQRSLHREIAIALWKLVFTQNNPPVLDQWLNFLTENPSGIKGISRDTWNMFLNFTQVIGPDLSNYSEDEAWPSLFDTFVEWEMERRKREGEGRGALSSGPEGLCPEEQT

With `C=C(CN(C)C)C(=O)NC[C@@H](NC(=O)[C@H](Cc1nc2ccc(C(C)C)cc2s1)NC(=O)CC)C1CCCCC1` [DI-1859] the “concentration as low as which cullin 3 neddylation is inhibited” value (neddylation of cullin 3 [1]) was ≤ 1 nM, the “potency in inhibition of cullin 3 neddylation compared with DI-591” value (neddylation of cullin 3 [1]) was “much more potent than DI-591” and the “times more potent than DI-591 in inhibition of cullin 3 neddylation” value (neddylation of cullin 3 [1]) was ~ 1000 times. The “inhibition of neddylation of cullin members” value ([2]; THLE2, Fig. 6b) was “similar, high selectivity”, the “selectivity in inhibition of the neddylation of cullin 3 over other cullin members” value ([2]; a number of cell lines) was 1000 fold and the “upregulation of NRF2 protein in the mouse liver” value ([3]; C57BL/6 male mice) was “robust upregulation”. For the same compound, the “persistence of upregulation of NRF2 in mouse liver” value [3] was > 24 h, the “covalent complex formation with DCN3” value (DCN3 protein) was “fail to form any detectable complex” and the “time by which the compounds were cleared from systemic circulation” value ([4]; 25 mg/kg IP) was < 3 h. For the same compound, the Liver concentration [4, 6] was “BLQ”, the Plasma concentration [4, 6] was “BLQ” and the Liver concentration [4, 7] was “BLQ”. For the same compound, the Plasma concentration [4, 7] was “BLQ”, the concentration at 1 h ([4]; liver, 25 mg/kg, C57BL/6 male mice, 25 mg/kg IP, 1 h, read-out: Liver concentration) was 3280 ± 531 ng/g and the concentration at 3 h ([4]; liver, 25 mg/kg, C57BL/6 male mice, 25 mg/kg IP, 3 h, read-out: Liver concentration) was 30 ± 29 ng/g. The concentration at 1 h ([4]; liver, 25 mg/kg, mouse liver, IP 25mg/kg, 1h, mean of 3 mice, read-out: Concentration in mouse liver, MEAN) was 3280 ng/g, the concentration at 1 h ([4]; liver, 25 mg/kg, mouse liver, IP 25mg/kg, 1h, single animals, read-out: Concentration in mouse liver, individual mice 1, 2, 3) was 3880 ng/g and the concentration at 3 h ([4]; liver, 25 mg/kg, mouse liver, IP 25mg/kg, 3h, mean of 3 mice, read-out: Concentration in mouse liver, MEAN) was 30.3 ng/g. For the same compound, the concentration at 6 h ([4]; liver, 25 mg/kg, mouse liver, IP 25mg/kg, 6h, mean of 3 mice, read-out: Concentration in mouse liver, MEAN) was 2.27 ng/g, the concentration at 24 h ([4]; liver, 25 mg/kg, mouse liver, IP 25mg/kg, 24h, mean, read-out: Concentration in mouse liver, MEAN) was 1.46 ng/g and the concentration at 24 h ([4]; liver, 25 mg/kg, mouse liver, IP 25mg/kg, 24h, single animals, read-out: Concentration in mouse liver, individual mice 1, 2, 3) was 1.56 ng/g. For the same compound, the concentration at 1 h ([4]; plasma, 25 mg/kg, C57BL/6 male mice, 25 mg/kg IP, 1 h, read-out: Plasma concentration) was 1740 ± 292 ng/mL, the concentration at 3 h ([4]; plasma, 25 mg/kg, C57BL/6 male mice, 25 mg/kg IP, 3 h, read-out: Plasma concentration) was 28 ± 12 ng/mL and the concentration at 1 h ([4]; plasma, 25 mg/kg, mouse plasma, IP 25mg/kg, 1h, mean of 3 mice, read-out: Concentration in mouse plasma, MEAN) was 1740 ng/mL. For the same compound, the concentration at 1 h ([4]; plasma, 25 mg/kg, mouse plasma, IP 25mg/kg, 1h, single animals, read-out: Concentration in mouse plasma, individual mice 1, 2, 3) was 2070 ng/mL, the concentration at 3 h ([4]; plasma, 25 mg/kg, mouse plasma, IP 25mg/kg, 3h, mean of 3 mice, read-out: Concentration in mouse plasma, MEAN) was 27.9 ng/mL and the concentration at 6 h ([4]; plasma, 25 mg/kg, mouse plasma, IP 25mg/kg, 6h, mean (only one mouse above the limit of quantification), read-out: Concentration in mouse plasma, MEAN) was 1.04 ng/mL. The concentration at 6 h ([4]; plasma, 25 mg/kg, mouse plasma, IP 25mg/kg, 6h, single animals, limit of quantification 1 ng/mL, read-out: Concentration in mouse plasma, individual mice 1, 2, 3) was < 1 ng/mL, the concentration at 24 h ([4]; plasma, 25 mg/kg, mouse plasma, IP 25mg/kg, 24h, single animals, limit of quantification 1 ng/mL, read-out: Concentration in mouse plasma, individual mice 1, 2, 3) was < 1 ng/mL and the “Concentration in mouse liver, individual mice 1, 2, 3” value (from here on “Concentration in mouse liver”) ([4]; mouse liver, IP 25mg/kg, 1h, single animals, 25 mg/kg) was 3079.98 ng/g and 2879.94 ng/g. The “Concentration in mouse liver” value ([4]; mouse liver, IP 25mg/kg, 3h, single animals, 25 mg/kg) was 13.04 ng/g and 64.07 ng/g and 13.91 ng/g, the “Concentration in mouse liver” value ([4]; mouse liver, IP 25mg/kg, 6h, single animals, 25 mg/kg) was 1.59 ng/g and the “Concentration in mouse liver” value ([4]; mouse liver, IP 25mg/kg, 24h, single animals, 25 mg/kg) was 1.41 ng/g and 1.40 ng/g. The “Concentration in mouse plasma, individual mice 1, 2, 3” value (“Concentration in mouse plasma” for short) ([4]; mouse plasma, IP 25mg/kg, 1h, single animals, 25 mg/kg) was 1549.72 ng/mL and 1588.65 ng/mL, the “Concentration in mouse plasma” value ([4]; mouse plasma, IP 25mg/kg, 3h, single animals, 25 mg/kg) was 36.02 ng/mL and 14.64 ng/mL and 33.18 ng/mL and the “Concentration in mouse plasma” value ([4]; mouse plasma, IP 25mg/kg, 6h, single animals, limit of quantification 1 ng/mL, 25 mg/kg) was <1 ng/mL and 1.04 ng/mL. For the same compound, the “Concentration in mouse plasma” value ([4]; mouse plasma, IP 25mg/kg, 24h, single animals, limit of quantification 1 ng/mL) was <1 ng/mL, the “concentration achieving profound inhibition of the neddylation of cullin 3” value (neddylation of cullin 3 [5]) was 1 to 3 nM and the “concentration as low as which the level of neddylated cullin 3 is significantly reduced” value (neddylation of cullin 3 [5]) was ≤ 0.3 nM. For the same compound, the “times more potent than DI-591 in inducing accumulation of NRF2 protein” value (NRF2 protein) was 100–1000 times.

Reference: PMC8113459, “Selective inhibition of cullin 3 neddylation through covalent targeting DCN1 protects mice from acetaminophen-induced liver toxicity” (Nature Communications, 2021)
